Reference: US20100317715A1, “METHODS FOR TREATING NEUROPSYCHIATRIC CONDITIONS” (priority 2007, published 2010)
Where two headings read alike, the source gives them in different places.

How the values were obtained:
[1] = target: PAK4 (Homo sapiens, UniProt O96013); assay: Competitive binding assay (phage-displayed kinase vs immobilized staurosporine bait), PAK4; settings: PAK Inhibitor Affinity Assay
[2] = target: PAK1 (Homo sapiens, UniProt Q13153); assay: Competitive binding assay (phage-displayed kinase vs immobilized staurosporine bait), PAK1
PAK1, sequence (Q13153 whole entry): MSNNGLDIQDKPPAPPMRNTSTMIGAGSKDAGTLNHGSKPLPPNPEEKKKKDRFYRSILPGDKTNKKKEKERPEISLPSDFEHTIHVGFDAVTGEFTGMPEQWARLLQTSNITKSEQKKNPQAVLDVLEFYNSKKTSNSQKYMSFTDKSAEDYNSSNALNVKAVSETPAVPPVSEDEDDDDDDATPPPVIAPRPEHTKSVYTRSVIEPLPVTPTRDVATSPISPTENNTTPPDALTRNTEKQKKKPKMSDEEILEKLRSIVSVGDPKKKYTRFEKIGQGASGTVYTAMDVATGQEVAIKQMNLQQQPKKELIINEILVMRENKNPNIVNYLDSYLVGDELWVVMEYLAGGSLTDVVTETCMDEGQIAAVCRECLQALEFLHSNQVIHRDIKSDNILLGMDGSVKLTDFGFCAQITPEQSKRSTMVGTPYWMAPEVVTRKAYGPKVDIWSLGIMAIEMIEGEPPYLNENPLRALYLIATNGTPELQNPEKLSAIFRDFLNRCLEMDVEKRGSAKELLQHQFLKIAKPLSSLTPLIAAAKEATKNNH

[3] = target: PAK6 (Homo sapiens, UniProt Q9NQU5); assay: biochemical; format: binding; settings: PAK Inhibitor Affinity Assay
PAK6, sequence (Q9NQU5 whole entry): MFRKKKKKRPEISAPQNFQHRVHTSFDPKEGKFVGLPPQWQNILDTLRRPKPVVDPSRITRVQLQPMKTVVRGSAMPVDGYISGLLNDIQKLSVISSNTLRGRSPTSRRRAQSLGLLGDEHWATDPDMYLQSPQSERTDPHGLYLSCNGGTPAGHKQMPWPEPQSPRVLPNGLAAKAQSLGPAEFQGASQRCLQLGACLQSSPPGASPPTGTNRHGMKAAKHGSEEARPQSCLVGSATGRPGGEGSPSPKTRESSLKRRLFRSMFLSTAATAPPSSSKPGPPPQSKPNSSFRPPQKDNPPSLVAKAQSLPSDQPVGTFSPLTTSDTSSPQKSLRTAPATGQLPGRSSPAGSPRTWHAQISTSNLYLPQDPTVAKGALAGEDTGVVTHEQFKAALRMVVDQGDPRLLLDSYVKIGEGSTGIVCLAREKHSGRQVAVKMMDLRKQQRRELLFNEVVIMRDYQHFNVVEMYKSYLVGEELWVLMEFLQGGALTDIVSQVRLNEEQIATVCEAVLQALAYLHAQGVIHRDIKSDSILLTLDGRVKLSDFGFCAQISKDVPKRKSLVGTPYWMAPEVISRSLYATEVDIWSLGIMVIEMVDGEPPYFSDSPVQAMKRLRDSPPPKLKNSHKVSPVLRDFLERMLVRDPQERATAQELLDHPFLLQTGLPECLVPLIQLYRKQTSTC

[4] = target: PAK2 (Homo sapiens, UniProt Q13177); assay: Competitive binding assay (phage-displayed kinase vs immobilized staurosporine bait), PAK2
PAK2, sequence (Q13177 whole entry): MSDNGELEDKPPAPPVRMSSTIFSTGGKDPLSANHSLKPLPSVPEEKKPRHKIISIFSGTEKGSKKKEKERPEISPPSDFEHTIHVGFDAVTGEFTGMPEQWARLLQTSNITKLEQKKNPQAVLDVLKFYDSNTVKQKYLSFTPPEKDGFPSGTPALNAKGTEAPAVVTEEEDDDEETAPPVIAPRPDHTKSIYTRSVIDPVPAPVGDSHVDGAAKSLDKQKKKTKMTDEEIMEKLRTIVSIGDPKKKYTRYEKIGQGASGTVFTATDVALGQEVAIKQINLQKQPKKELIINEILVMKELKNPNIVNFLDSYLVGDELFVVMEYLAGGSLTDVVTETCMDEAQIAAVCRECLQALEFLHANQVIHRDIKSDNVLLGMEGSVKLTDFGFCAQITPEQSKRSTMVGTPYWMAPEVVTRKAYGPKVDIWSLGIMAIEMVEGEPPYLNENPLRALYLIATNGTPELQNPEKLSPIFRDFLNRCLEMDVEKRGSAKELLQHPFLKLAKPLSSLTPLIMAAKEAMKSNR

[5] = target: PAK7 (Homo sapiens, UniProt Q9P286); assay: Competitive binding assay (phage-displayed kinase vs immobilized staurosporine bait), PAK7; settings: PAK Inhibitor Affinity Assay
PAK7, sequence (Q9P286 whole entry): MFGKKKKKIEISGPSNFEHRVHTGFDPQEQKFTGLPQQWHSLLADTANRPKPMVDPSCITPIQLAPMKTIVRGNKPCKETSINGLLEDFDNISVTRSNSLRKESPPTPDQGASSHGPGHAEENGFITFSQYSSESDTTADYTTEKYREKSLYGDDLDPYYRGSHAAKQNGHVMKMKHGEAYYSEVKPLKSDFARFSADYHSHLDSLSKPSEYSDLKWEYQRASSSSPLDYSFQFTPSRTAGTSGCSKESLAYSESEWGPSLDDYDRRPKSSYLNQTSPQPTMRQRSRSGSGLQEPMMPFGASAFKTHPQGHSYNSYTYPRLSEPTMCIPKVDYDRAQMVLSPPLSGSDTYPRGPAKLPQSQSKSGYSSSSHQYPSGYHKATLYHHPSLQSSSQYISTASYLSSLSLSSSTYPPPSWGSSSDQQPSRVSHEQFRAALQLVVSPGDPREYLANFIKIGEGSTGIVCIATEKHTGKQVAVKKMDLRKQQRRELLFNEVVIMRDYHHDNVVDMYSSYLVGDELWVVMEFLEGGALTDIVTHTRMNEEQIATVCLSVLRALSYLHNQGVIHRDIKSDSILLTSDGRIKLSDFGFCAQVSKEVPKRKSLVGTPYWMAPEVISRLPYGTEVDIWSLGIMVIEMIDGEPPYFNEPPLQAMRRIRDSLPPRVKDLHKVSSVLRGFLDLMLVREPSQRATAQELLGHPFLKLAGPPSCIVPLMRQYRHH

PAK4, sequence (O96013 whole entry): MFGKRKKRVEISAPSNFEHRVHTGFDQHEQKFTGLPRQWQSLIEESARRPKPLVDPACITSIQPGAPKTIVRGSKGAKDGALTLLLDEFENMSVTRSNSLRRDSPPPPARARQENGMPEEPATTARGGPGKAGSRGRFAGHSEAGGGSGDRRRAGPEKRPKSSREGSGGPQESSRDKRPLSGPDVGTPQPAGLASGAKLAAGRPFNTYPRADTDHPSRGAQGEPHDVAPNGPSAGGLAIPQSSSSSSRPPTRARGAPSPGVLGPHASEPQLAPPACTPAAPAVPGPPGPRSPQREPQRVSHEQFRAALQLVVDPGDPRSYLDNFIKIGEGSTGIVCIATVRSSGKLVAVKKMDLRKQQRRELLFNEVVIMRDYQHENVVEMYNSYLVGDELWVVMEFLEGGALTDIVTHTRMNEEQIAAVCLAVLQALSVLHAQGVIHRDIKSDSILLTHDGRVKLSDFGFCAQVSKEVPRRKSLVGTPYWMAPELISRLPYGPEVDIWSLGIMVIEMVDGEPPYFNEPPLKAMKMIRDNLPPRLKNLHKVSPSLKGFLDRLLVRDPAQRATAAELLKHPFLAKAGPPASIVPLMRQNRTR

Structure (SMILES): CCOc1cc2ncc(C#N)c(Nc3ccc(F)c(Cl)c3)c2cc1NC(=O)/C=C/CN(C)C [EKB-569]
- Kd [1]: ≥ 10 µM
- Kd ([2]; PAK Inhibitor Affinity Assay, read-out: Kd PAK1): < 5 µM
- Kd [3]: ≥ 10 µM
- Kd ([4]; PAK Inhibitor Affinity Assay, read-out: Kd PAK2): ≥ 10 µM
- Kd [5]: ≥ 10 µM

Structure (SMILES): Nc1nc(Nc2ccc(S(N)(=O)=O)cc2)nn1C(=O)c1c(F)cccc1F [JNJ-7706621]
- Kd [2]: ≥ 10 µM
- Kd [3]: < 5 µM
- Kd [4]: ≥ 10 µM
